This assay deals with HDAC (HeLa nuclear extract, rich in HDAC activity). As to the kind of experiment: HDAC AK-501 colorimetric inhibition kit (Color de Lys substrate, HeLa nuclear extract). It counts as biochemical, human. Particulars: Color de Lys substrate 0.2 mM final, 20 minutes at 37° C., reading at 405 nm, 5 concentrations (0.1-1.0 μM). Here is the method:
The process of the assay was carried out in two steps. In the first step, the Color de Lys® substrate, containing an acetylated lysine group, was incubated with a sample of HeLa (human cervical cancer cell line) nuclear extract, rich in HDAC activity. […] There is a linear correlation between the absorption and the deacetylation of lysine within instrumental limits. The operating procedure was the following: • 1. […] The Hela extract was added, except to the enzyme-free control. • 3. The plate and the Color de Lys® substrate were thermostatted at 37° C. • 4. The reactions were started adding the 0.4 mM substrate (final concentration of the substrate 0.2 mM) in each well and it was stirred. • 5. A reaction time of 20 minutes at 37° C. was allowed. • 6. The Color de Lys® developer, prepared approximately 30 minutes before its use, was added (the developer was used diluted 20 times with an amount of TSA resulting in a final concentration of 1 μM in the assay). • It was allowed to react for 15 minutes at 37° C. • 7.

As usually defined, the IC50 is the concentration needed to halve the response being measured. High values mean weaker potency, low ones greater potency. Consider `O=C(CCCCCN1C(=O)c2ccc([N+](=O)[O-])cc2C1=O)NO` [MTC-127, 6-(5-nitro-1,3-dioxo-isoindol-2-yl)-N-hydroxyhexanamide], for which the half-maximal inhibitory concentration (IC50) was found to be 0.35 µM. The figure for `Cc1ccc2c(c1)C(=O)N(CCCCCC(=O)NO)C2=O` [MTC-141, 6-(5-methyl-1,3-dioxoisoindol-2-yl)-N-hydroxyhexanamide] is 0.18 µM.

Values taken from patent US20110003878A1, “NOVEL DERIVATIVES OF PHTHALIMIDE AS HISTONE DEACETYLASE INHIBITORS” (UNIVERSIDAD DE GRANADA, priority 2006, published 2011).
